In one assay the target is T1, LYP (Homo sapiens, UniProt Q9Y2R2).
T1 sequence (Q9Y2R2 1-303): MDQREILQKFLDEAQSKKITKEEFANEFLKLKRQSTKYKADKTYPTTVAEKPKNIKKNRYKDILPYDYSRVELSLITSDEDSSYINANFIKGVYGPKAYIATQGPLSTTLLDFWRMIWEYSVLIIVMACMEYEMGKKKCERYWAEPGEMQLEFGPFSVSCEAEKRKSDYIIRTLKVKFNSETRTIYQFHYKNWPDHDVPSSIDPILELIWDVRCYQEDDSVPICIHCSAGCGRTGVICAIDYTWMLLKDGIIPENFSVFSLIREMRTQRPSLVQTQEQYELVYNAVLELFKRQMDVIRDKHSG
The class given is biochemical.

For assay [1], the system named is BMMC. Briefly: NF-AT luciferase reporter gene analysis in BMMC. The class given is cell-based, mouse. For orientation: In a reporter assay the amount or activity of a reporter protein is the signal.
In assay [2] the test system is JTAg cells. Briefly: CD69 surface expression on JTAg cells. The conditions noted are these: […] µM, 4.5 hours at 37°C, resting JTAg cells; DMSO MFI=451.
In assay [3] the test system is JTAg cells. Briefly: Phospho-flow cytometry of ZAP-70. The conditions noted are these: […] µM, 30 min pre-incubation, C305 stimulation 2 min, vs DMSO. In general terms: In flow cytometry, cells or beads pass a laser one at a time.
The test system of a further assay is mice. In words: Passive systemic anaphylaxis. To be noted: PEP+/+ mice, 8b (20 µM) IP 1 h before DNP-HSA i.v., vs untreated groups. It counts as in vivo, mouse.
In assay [4] the test system is double-positive (DP) thymocytes. In words: Nur77 expression. To be noted: […] µM, […] at 37°C, thymocytes from Nur77GFP mice; DMSO MFI=604.
Assay [5] shares this test system. In words: CD69 surface expression on mouse thymocytes. To be noted: […] µM, […] at 37°C, thymocytes from Nur77GFP mice; DMSO MFI=381.
For assay [6], the system named is BMMC. Briefly: Mast cell degranulation.

Regarding `O=C(O)c1cc2c(C#Cc3ccc(Oc4ccccc4)cc3)c(-c3ccccc3)oc2cc1O` [Compound 4i], the “improvement of LYP inhibitory potency compared to Core 1” value on LYP turned out to be 50 fold.

Turning to `O=C(O)c1cc2c(C#Cc3cccc(Cl)c3)c(-c3ccccc3)oc2cc1O` [Compound 4c], on LYP, the “improvement of LYP inhibitory potency compared to Core 1” value is 50 fold.

For the compound `O=C(COc1ccc(-c2oc3cc(O)c(C(=O)O)cc3c2C#Cc2cccc(Cl)c2)cc1)NC1CC1` [Compound 8b, 3-((3-Chlorophenyl)ethynyl)-2-(4-(2-(cyclopropylamino)-2-oxoethoxy)phenyl)-6-hydroxybenzofuran-5-carboxylic Acid], the “basal and antigen-mediated NF-AT luciferase activity” value in the assay on BMMC [1] (PEP+/+ BMMC, C28 5 µM, 8b 5 and 20 µM for 1 h, DNP-HSA 8 h) is reported as “dose dependent down-regulation”. Also, in the assay on BMMC [1] (PEP−/− BMMC), the “residual NF-AT activity” value is given as “No significant effect”. In addition, the “CD69 expression, median fluorescence intensity (MFI)” value in the assay on JTAg cells [2] is reported as 616. Also, in the assay on JTAg cells [3], the “basal and TCR-stimulated phosphorylation of ZAP-70 on Tyr319” value is listed as “increased”. The “susceptibility to passive systemic anaphylaxis (change in body temperature)” value in the assay with mice is “less susceptible to PSA”. In addition, in assay [4], the “Nur77 expression by GFP cell fluorescence, MFI” value is given as 1120. Besides, in assay [5], the “CD69 expression, MFI” value is listed as 758. Also, in the assay with BMMC [6] (PEP+/+ BMMC, C28 5 µM, 8b 5 and 20 µM for 1 h, DNP-HSA 200 ng/ml), the “antigen-stimulated degranulation (release of β-hexosaminidase)” value was “down-regulated”. Moreover, in the assay on BMMC [6] (PEP−/− BMMC), the residual degranulation entry was “Neither compunds affected residual degranulation”.
